Experimental data reported in patent publication US9975983B2, “Bio-reducible self-assembled liquid crystalline block copolymer for drug delivery” (UNIVERSITY OF CONNECTICUT, priority 2014, dated 2018).

Tests used:
[1] = tested on: A549 cells; experiment: Intracellular uptake and release by CLSM in A549 cells; format: cell-based, human; conditions: 10 μg/mL DOX equivalents
Experimental: (§1) A549 (cancer cells) and NIH3T3 (normal cells) cells were seeded at a density of 1.0×10^5 cells/well in an 8-well chamber of a Lab-Tek II chamber slide and preincubated for 24 h at 37° C. and 5% CO2. Serum-free DMEM containing free DOX and DOX-NPs at equivalent doses (10 μg/mL) was added to each well, followed by incubation for 30 min, 2 h and 4 h at 37° C. The cells were then rinsed with PBS, and fixed with 4% formaldehyde solution for 10 min. Cover glasses were then placed on glass slides. The cellular uptake and release behavior of DOX-encapsulated SS or thioester NPs were imaged by confocal laser scanning microscopy (CLSM) (Leica, England) at an excitation wavelength of 488 nm for DOX. Since DOX itself is fluorescent, it was used directly to investigate cellular uptake without additional fluorescent labeling in of the nanoparticles.

[2] = tested on: HeLa cells; experiment: MTT cytotoxicity in HeLa cells; format: cell-based; conditions: equal DOX concentrations
Experimental: (§2) HeLa cells (7500 cells/well) were seeded on 96-well plates and cultured in 200 μL of DMEM supplemented with 10% FBS, 1% antibiotics, and 1% L-glutamine for 24 h at 37° C. and 5% CO2. After incubation, various concentrations of the blank nanoparticles (0.2-1 mg/mL), DOX-NPs, and free DOX (1-50 μg/mL of DOX equivalents) dissolved in DMEM without supplements were added. After 24 h of incubation with free DOX and DOX-NPs, and 48 h with blank nanoparticles, cytotoxicity was determined using 3-[4,5-dimethylthiazol-2-yl]-[…] bromide dye (MTT dye, final concentration of 0.5 mg/mL) uptake at 540 nm on a microplate reader (Tecan group Ltd., Männedorf, Switzerland).

[3] = tested on: A549 cells; experiment: MTT cytotoxicity in A549 cells; format: cell-based, human; conditions: 24 h
Experimental: as §2, with “A549 and NIH3T3” for “HeLa”, “DOX-encapsulated SS or thioester NPs” for “the blank nanoparticles (0.2-1 mg/mL), DOX-NPs,”, “incubation,” for “incubation with free DOX and DOX-NPs, and 48 h with blank nanoparticles,”, “Mannedorf,” for “Männedorf,”

[4] = tested on: HeLa cells; experiment: Cellular uptake by CLSM in HeLa cells; format: cell-based
Experimental: To observe the cellular uptake, HeLa cells (cancer cells) were seeded at a density of 1.0×10^5 cells/well in an 8-well chamber of a Lab-Tek II chamber slide and preincubated for 24 h at 37° C. and 5% CO2. […] The cells were then rinsed with PBS, stained with 10 μM Draq5 and fixed with 4% formaldehyde solution for 10 min. Cover glasses were then placed on glass slides. The cellular uptake of free DOX and DOX-NPs was imaged by CLSM at an excitation wavelength of 488 nm for DOX. To quantify cellular uptake, HeLa cells (5×10^5 cells/well) in 0.5 mL were grown on a 24-well plate at 37° C. in a humidified atmosphere of 5% CO2 for 24 h. Serum-free DMEM containing free DOX and DOX-NPs at equivalent doses (25 μg/mL) was added to the cells which were subsequently incubated for 2 h. The cells were then washed three times with PBS, harvested by trypsinization and transferred into Fluorescence Activated Cell Sorter (FACS) tubes. All samples were analyzed by flow cytometry (FACSCalibur, BD Biosciences, San Jose, Calif.) to determine cellular internalization. Fluorescence measurements of intracellular DOX were performed in the FL2 channel.

[5] = tested on: NIH3T3 cells; experiment: Intracellular uptake and release by CLSM in NIH3T3 cells; format: cell-based, Mouse; conditions: 10 μg/mL DOX equivalents, 30 min to 4 h
Experimental: as §1

[6] = in vivo; cited from earlier work

Structure (SMILES) | Location of red DOX fluorescent signal ([1]; 30 min) | Location of red DOX fluorescent signal ([1]; 2 h and 4 h) | Relative cytotoxicity [2] | Decrease of cell viability ([3]; 1-50 μg/mL DOX, dose-dependent) | Cytotoxicity relative to DOX-encapsulated thioester-NPs ([3]; all DOX concentrations) | Red DOX fluorescent signal in cells ([4]; 2 h) | Cell morphology ([4]; 4 h) | Red DOX fluorescent signal in cells ([4]; 4 h) | Location of red DOX fluorescent signal [5] | Biodistribution of free dye [6]
COc1cccc2c1C(=O)c1c(O)c3c(c(O)c1C2=O)C[C@@](O)(C(=O)CO)C[C@@H]3O[C@H]1C[C@H](N)[C@H](O)[C@H](C)O1 [free DOX, doxorubicin] | entered the cellular nuclei | strong red signal in the cellular nuclei | significantly higher cytotoxicity than DOX-encapsulated NPs | 5-82% | significantly higher | red fluorescent signal was observed | cell shrinkage and blebbing | significant increases in the red signal | red signal was observed in the cellular nuclei | –
CCCCCCCCCCCCCCCCCCN1C(=CC=CC=CC=CC2=[N+](CCCCCCCCCCCCCCCCCC)c3ccccc3C2(C)C)C(C)(C)c2ccccc21.[I-] [free hydrophobic DiR, 1,1′-Dioctadecyl-3,3,3′,3′-tetramethylindotricarbocyanine iodide] | – | – | – | – | – | – | – | – | – | accumulated in liver from 1 h to 24 h with negligible tumor accumulation
